How the values were obtained:
Cannabinoid receptor 1 = Cannabinoid receptor 1 (Homo sapiens, UniProt P21554); format: functional, cell-based
B2 bradykinin receptor = molecular target: T1, B2 bradykinin receptor (Homo sapiens, UniProt P30411)
T1 sequence (P30411 whole entry): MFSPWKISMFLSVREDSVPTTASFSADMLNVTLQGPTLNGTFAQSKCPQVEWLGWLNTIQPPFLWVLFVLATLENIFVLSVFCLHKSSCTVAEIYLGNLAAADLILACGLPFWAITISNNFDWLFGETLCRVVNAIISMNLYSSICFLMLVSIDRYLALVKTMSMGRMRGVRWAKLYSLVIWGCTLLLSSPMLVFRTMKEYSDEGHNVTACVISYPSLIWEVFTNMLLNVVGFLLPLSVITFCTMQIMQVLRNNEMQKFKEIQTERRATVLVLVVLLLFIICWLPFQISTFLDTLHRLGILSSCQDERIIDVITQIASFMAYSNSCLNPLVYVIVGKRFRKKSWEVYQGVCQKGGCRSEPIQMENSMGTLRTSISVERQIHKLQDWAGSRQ

Histamine H3 receptor = Histamine H3 receptor (Homo sapiens, UniProt Q9Y5N1)
[1] = molecular target: T2, Neuropeptide Y receptor type 1 (Homo sapiens, UniProt P25929)
T2 sequence (P25929 whole entry): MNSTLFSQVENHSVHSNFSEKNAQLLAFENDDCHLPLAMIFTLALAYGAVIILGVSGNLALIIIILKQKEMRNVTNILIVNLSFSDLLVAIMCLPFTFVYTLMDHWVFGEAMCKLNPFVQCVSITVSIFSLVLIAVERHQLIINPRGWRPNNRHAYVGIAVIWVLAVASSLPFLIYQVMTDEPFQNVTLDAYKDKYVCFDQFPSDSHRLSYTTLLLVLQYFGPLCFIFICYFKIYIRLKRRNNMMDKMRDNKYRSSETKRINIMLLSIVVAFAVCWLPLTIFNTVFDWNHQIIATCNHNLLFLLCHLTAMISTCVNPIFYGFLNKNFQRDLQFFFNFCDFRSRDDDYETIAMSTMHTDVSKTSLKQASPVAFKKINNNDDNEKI

Melanocortin receptor 4 = Melanocortin receptor 4 (Homo sapiens, UniProt P32245)
Endothelin-1 receptor = molecular target: T3, Endothelin-1 receptor (Homo sapiens, UniProt P25101)
T3 sequence (P25101 whole entry): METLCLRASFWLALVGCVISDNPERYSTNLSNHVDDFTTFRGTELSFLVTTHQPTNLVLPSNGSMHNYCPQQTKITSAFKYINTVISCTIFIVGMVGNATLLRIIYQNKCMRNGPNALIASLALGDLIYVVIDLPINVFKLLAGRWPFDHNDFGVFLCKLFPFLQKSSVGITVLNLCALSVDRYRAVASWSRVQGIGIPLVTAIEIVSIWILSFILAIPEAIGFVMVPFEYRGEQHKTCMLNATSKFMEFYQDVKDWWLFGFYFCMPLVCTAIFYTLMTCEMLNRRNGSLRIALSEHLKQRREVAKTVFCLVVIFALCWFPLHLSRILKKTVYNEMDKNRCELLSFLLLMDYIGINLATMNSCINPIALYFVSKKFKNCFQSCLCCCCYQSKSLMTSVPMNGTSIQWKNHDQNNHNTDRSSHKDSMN

[2] = molecular target: T4, Alpha-1A adrenergic receptor (Homo sapiens, UniProt P35348)
T4 sequence (P35348 whole entry): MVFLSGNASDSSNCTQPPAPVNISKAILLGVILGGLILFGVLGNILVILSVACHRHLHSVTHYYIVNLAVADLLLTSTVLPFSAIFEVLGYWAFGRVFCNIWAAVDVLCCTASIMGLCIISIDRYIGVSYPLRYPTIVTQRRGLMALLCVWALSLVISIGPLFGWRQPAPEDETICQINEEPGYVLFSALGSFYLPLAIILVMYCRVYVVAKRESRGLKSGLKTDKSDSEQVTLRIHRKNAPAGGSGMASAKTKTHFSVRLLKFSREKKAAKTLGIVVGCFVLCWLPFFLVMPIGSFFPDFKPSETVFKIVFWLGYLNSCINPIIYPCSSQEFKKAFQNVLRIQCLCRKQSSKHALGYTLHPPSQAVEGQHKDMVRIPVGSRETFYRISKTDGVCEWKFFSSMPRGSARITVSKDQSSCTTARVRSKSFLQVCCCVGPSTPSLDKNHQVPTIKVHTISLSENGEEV

Glucocorticoid receptor = molecular target: T5, Glucocorticoid receptor (Homo sapiens, UniProt P04150)
T5 sequence (P04150 whole entry): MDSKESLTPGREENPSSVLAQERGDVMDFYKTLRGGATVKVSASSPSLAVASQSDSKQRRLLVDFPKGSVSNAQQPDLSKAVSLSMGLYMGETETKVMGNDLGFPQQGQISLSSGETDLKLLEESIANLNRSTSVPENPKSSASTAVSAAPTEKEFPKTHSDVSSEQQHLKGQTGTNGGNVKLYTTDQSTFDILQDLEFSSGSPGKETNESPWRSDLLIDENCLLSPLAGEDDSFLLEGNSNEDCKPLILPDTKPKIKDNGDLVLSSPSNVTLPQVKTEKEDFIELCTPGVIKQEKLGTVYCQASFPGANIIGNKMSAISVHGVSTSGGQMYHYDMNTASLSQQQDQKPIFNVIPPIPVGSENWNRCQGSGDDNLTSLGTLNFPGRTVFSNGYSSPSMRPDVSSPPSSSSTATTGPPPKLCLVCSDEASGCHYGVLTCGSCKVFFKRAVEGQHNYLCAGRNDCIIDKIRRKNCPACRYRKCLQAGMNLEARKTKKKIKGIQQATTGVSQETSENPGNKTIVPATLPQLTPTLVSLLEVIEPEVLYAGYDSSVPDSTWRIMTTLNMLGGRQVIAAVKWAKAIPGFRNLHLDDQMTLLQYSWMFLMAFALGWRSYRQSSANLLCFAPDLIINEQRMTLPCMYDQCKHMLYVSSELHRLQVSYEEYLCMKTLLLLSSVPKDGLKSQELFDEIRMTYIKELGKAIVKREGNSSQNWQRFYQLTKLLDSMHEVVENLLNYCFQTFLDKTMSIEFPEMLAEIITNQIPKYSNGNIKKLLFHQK

Prothrombin = Prothrombin (Homo sapiens, UniProt P00734); format: functional
Histamine H1 receptor = Histamine H1 receptor (Homo sapiens, UniProt P35367)
Note: assay procedure not described here.

Chain of Melanocortin receptor 4 (P32245 whole entry): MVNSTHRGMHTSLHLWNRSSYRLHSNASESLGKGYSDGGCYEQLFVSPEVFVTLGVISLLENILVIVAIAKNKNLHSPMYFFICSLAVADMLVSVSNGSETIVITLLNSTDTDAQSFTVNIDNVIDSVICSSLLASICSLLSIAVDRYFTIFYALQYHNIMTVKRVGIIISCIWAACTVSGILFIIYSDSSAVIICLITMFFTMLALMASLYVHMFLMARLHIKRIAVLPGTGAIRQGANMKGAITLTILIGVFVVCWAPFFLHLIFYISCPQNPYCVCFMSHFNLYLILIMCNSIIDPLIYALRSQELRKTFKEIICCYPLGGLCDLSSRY
Chain of Cannabinoid receptor 1 (P21554 whole entry): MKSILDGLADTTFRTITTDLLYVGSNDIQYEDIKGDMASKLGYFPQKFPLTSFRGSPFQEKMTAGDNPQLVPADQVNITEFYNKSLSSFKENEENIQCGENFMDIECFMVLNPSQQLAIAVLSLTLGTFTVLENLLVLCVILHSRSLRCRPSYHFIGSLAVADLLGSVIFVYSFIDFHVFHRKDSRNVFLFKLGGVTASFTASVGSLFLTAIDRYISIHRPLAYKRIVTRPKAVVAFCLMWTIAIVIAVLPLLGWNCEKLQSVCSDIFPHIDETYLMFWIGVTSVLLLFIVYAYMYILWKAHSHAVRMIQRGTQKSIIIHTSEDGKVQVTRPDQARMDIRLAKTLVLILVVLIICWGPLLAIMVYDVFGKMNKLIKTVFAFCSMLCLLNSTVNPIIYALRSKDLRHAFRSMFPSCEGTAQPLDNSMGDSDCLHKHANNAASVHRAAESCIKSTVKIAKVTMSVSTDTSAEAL
Chain of Histamine H3 receptor (Q9Y5N1 whole entry): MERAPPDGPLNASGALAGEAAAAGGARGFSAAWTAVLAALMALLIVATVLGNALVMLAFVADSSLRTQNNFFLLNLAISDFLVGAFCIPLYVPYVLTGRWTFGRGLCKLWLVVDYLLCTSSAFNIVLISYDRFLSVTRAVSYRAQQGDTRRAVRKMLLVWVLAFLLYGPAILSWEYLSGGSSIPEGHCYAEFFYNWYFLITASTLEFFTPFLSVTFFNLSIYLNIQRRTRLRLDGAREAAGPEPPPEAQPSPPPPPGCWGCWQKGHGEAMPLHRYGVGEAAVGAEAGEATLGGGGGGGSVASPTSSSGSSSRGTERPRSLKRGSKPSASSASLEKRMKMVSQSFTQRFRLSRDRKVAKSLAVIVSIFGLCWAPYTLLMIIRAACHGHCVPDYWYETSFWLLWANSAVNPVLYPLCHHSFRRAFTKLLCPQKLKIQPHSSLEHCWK
Chain of Histamine H1 receptor (P35367 whole entry): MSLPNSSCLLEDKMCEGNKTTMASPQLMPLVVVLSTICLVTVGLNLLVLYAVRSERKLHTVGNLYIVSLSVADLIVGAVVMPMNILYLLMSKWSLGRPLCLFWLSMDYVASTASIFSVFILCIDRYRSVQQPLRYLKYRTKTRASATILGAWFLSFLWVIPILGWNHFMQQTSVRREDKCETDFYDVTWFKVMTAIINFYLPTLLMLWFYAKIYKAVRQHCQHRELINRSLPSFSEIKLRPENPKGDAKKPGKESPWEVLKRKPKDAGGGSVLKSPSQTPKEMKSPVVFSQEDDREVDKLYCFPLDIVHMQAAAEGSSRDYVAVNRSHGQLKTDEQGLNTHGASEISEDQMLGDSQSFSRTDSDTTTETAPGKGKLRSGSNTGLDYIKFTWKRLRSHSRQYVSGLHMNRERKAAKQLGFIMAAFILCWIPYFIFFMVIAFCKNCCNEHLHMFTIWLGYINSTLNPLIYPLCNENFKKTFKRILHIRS

Compound	AC50 (Cannabinoid receptor 1)	AC50 (B2 bradykinin receptor)	AC50 (Histamine H3 receptor)	AC50 [1]	AC50 (Melanocortin receptor 4)	AC50 (Endothelin-1 receptor)	AC50 [2]	AC50 (Glucocorticoid receptor)	AC50 (Prothrombin)	AC50 (Histamine H1 receptor)
CCOC(=O)[C@H](CCc1ccccc1)N[C@@H](C)C(=O)N1CCC[C@H]1C(=O)O	> 30 µM	> 30 µM	> 10 µM	> 30 µM	> 30 µM	> 30 µM	> 10 µM	> 30 µM		
Nc1nc(N)c2nc(-c3ccccc3)c(N)nc2n1	> 30 µM	> 30 µM	> 30 µM	> 30 µM	> 10 µM	> 30 µM	> 10 µM	> 30 µM	> 3 µM	
C[C@H]1O[C@H](O[C@H]2[C@H](O)[C@@H](O)[C@@H](O[C@H]3[C@H](O)[C@@H](O)C(O)O[C@@H]3CO)O[C@@H]2CO)[C@H](O)[C@@H](O)[C@@H]1N[C@H]1C=C(CO)[C@@H](O)[C@H](O)[C@H]1O (stereo partly specified) [ACARBOSE]	> 30 µM	> 30 µM	> 30 µM	> 30 µM	> 30 µM	> 30 µM	> 10 µM	> 30 µM	> 30 µM	
Oc1ncnc2[nH]ncc12 [ALLOPURINOL]	> 30 µM	> 30 µM	> 30 µM	> 30 µM	> 30 µM	> 30 µM	2.88 µM	> 30 µM	> 30 µM	
CC(N)Cc1ccccc1 (stereo unspecified) [AMPHETAMINE]	> 30 µM	> 30 µM	> 30 µM	> 30 µM	> 30 µM	> 30 µM	> 10 µM	> 30 µM		
CC(C)NCC(O)COc1ccc(COCCOC(C)C)cc1 (stereo unspecified) [BISOPROLOL]		> 30 µM	> 10 µM	> 30 µM	> 30 µM	> 30 µM	> 10 µM	> 30 µM		> 10 µM
CN(CCOc1ccc(NS(C)(=O)=O)cc1)CCc1ccc(NS(C)(=O)=O)cc1 [DOFETILIDE]	> 30 µM	> 30 µM	> 10 µM	> 30 µM	> 30 µM	> 30 µM	> 10 µM	> 30 µM	> 30 µM	> 10 µM
COC(=O)[C@@H]1CC2=CC(=O)CC[C@]2(C)[C@@]23O[C@@H]2C[C@@]2(C)[C@@H](CC[C@@]24CCC(=O)O4)[C@H]13 [EPLERENONE]	> 30 µM	> 30 µM	> 30 µM	> 30 µM	> 30 µM	> 30 µM	> 10 µM			> 30 µM
C#C[C@]1(O)CC[C@H]2[C@@H]3CCc4cc(O)ccc4[C@H]3CC[C@@]21C [ETHINYL ESTRADIOL]		> 30 µM	> 10 µM	> 30 µM	> 30 µM	> 30 µM	> 10 µM	0.12 µM	> 30 µM	
NC(N)=Nc1nc(CSCCC(N)=NS(N)(=O)=O)cs1 [FAMOTIDINE]	> 30 µM	> 30 µM	> 10 µM	> 30 µM	> 30 µM	> 30 µM	> 10 µM	> 30 µM		
CCc1nn(CCCN2CCN(c3cccc(Cl)c3)CC2)c(=O)n1CCOc1ccccc1 [NEFAZODONE]	> 30 µM	> 30 µM		> 30 µM	> 30 µM	> 30 µM	0.833 µM			0.41 µM
CCc1ccc(CCOc2ccc(CC3SC(=O)NC3=O)cc2)nc1 (stereo unspecified) [PIOGLITAZONE]		> 30 µM		> 30 µM	> 30 µM	15.9 µM	> 10 µM	> 30 µM	> 30 µM	
CC(C(=O)O)c1ccc(N2CC=CC2)c(Cl)c1 (stereo unspecified) [PIRPROFEN]	> 30 µM	> 30 µM	> 10 µM	> 30 µM	> 30 µM	> 30 µM	> 10 µM	> 30 µM	> 30 µM	> 10 µM
NC(=O)c1cnccn1 [PYRAZINAMIDE]	> 30 µM	> 30 µM	> 30 µM	> 30 µM	10.2 µM	> 30 µM	> 10 µM	> 30 µM	> 30 µM	
O=C(CCCCCCC(=O)Nc1ccccc1)NO [VORINOSTAT]	> 30 µM	> 30 µM	> 30 µM	> 30 µM	> 30 µM	> 30 µM	> 10 µM			> 30 µM

Source: ChEMBL document CHEMBL5291721, “A preclinical secondary pharmacology resource illuminates target-adverse drug reaction associations of marketed drugs” (Nat Commun, 2023)
